Usually pest or weed control stands for how far the test organism was held down. Higher therefore signals a strong effect.

The values below come from patent publication US8410145B2, “Insecticidal compounds” (Syngenta Crop Protection LLC, priority 2007, dated 2013).

Where only a bound is given, the exact number is not on record here.

What all share (type): in vivo
The test system of assay [1] is Spodoptera littoralis (Egyptian Cotton Leafworm). The assay can be described thus: Spodoptera littoralis cotton leaf disc spray test. The settings on record: foliar, 72 h, 200 ppm spray on cotton leaf discs, L1 larvae, mortality, feeding behavior, growth regulation 3 DAT. The text has this: (§1) Cotton leaf discs were placed on agar in a 24-well microtiter plate and sprayed with test solutions at an application rate of 200 ppm. After drying, the leaf discs were infested with 5 to L1 larvae. The samples were checked for mortality, feeding behavior, and growth regulation 3 days after treatment (DAT). The following compounds gave at least 80% control of Spodoptera littoralis: A1, A2, A3, A4, A6, A9, A10, A11, A12, A13, A14, A15, A16, A19, A20, A22, A23, A25, A26, A27, B1, B2, B3, B5, B6, B7, B8, B9, B11, B12, B13, B15, B16, B18, B19, B20, B21, B22, B24, B26, B27, B28, C1, C2, C3, C4, C5, C6, C7, C8, C9, C10, C12, C13, C16, C19, C20, C21, C22, C23, D1, D2, D3, D4, D5, D6, D7, D8, D9, D10, D11, D12, D13, D14, D15, D16, D17, D18, D19, D20, D21, D22, D23, D24. Heliothis virescens (Tobacco Budworm): Eggs (0-24 h old) were placed in 24-well microtiter plate on artificial diet and treated with test solutions at an application rate of 200 ppm (concentration in well 18 ppm) by pipetting. After an incubation period of 4 days, samples were checked for egg mortality, larval mortality, and growth regulation. The following compounds gave at least 80% control of Heliothis virescens: A1, A2, A3, A4, A13, A15, A17, A19, A20, A22, A23, A25, A26, A28, B1, B2, B3, B5, B6, B7, B9, B11, B13, B15, B18, B19, B20, B21, B25, B26, B27, B28, C1, C2, C3, C4, C5, C6, C7, C8, C9, C10, C12, C14, C16, C17, C19, C20, C21, C22, D1, D2, D3, D4, D5, D6, D7, D8, D9, D10, D11, D12, D13, D14, D15, D16, D17, D18, D19, D20, D21, D22, D23, E1, E2, E3, E4, E5. Plutella xylostella (Diamond Back Moth): 24-well microtiter plate (MTP) with artificial diet was treated with test solutions at an application rate of 200 ppm (concentration in well 18 ppm) by pipetting. After drying, the MTP's were infested with L2 larvae (7-12 per well). After an incubation period of 6 days, samples were checked for larval mortality and growth regulation. The following compounds gave at least 80% control of Plutella xylostella: A1, A3, A4, A10, All, A15, A19, A23, A25, B1, B2, B3, B5, B6, B7, B8, B9, B11, B13, B15, B18, B19, B20, B21, B26, B27, B28, C1, C2, C3, C4, C6, C7, C8, C9, C12, C16, C19, C20, C22, D1, D2, D3, D4, D5, D6, D7, D8, D9, D10, D12, D13, D14, D15, D16, D17, D18, D19, D20, D21, D22, D23, E1, E3, E5. Diabrotica balteata (Corn Root Worm): A 24-well microtiter plate (MTP) with artificial diet was treated with test solutions at an application rate of 200 ppm (concentration in well 18 ppm) by pipetting. After drying, the MTP's were infested with L2 larvae (6-10 per well). After an incubation period of 5 days, samples were checked for larval mortality and growth regulation. The following compounds gave at least 80% control of Diabrotica balteata: A2, A3, A4, A9, A11, A12, A13, A14, A15, A17, A19, A21, A22, A23, A24, A25, A26, B1, B2, B3, B6, B7, B8, B11, B13, B14, B15, B18, B19, B20, B21, B22, B26, B28, C1, C2, C3, C4, C5, C6, C7, C8, C9, C10, C12, C14, C15, C16, C19, C20, C21, C22, C23, C26, D1, D2, D4, D5, D6, D7, D8, D9, D10, D12, D14, D15, D16, D17, D18, D19, D20, D21, D22, D23, E2, E3, E5. Thrips tabaci (Onion Thrips): Sunflower leaf discs were placed on agar in a 24-well microtiter plate and sprayed with test solutions at an application rate of 200 ppm. After drying, the leaf discs were infested with an […] population of mixed ages. After an incubation period of 7 days, samples were checked for mortality. The following compounds gave at least 80% control of Thrips tabaci: B1, B7, B11, B15, B18, B19, B28, D1, D2, D3, D4, D5, D6, D7, D8, D9, D10, D12, D16, D18, D19, D20, D21, D23. Tetranychus urticae (Two-Spotted Spider Mite): Bean leaf discs on agar in 24-well microtiter plates were sprayed with test solutions at an application rate of 200 ppm. After drying, the leaf discs are infested with mite populations of mixed ages. 8 days later, discs are checked for egg mortality, larval mortality, and adult mortality. […]

In assay [2] the test system is Plutella xylostella (Diamond Back Moth). The experiment in a line: Plutella xylostella larvae test on artificial diet. The settings on record: 144 h, 200 ppm (concentration in well 18 ppm), L2 larvae, larval mortality and growth regulation after 6 days.
Source text: as §1

Assay [3] has as its system Heliothis virescens (Tobacco Budworm). The experiment in a line: Heliothis virescens egg test on artificial diet. To be noted: 96 h, 200 ppm (concentration in well 18 ppm), eggs 0-24 h old on artificial diet, egg mortality, larval mortality, growth regulation after 4 days.
Source text: as §1

Assay [4] relates to Diabrotica balteata (Corn Root Worm). The assay can be described thus: Diabrotica balteata larvae test on artificial diet. The settings on record: 120 h, 200 ppm (concentration in well 18 ppm), L2 larvae, larval mortality and growth regulation after 5 days.
Source text: as §1

The subject of assay [5] is Tetranychus urticae (Two-Spotted Spider Mite). The experiment in a line: Tetranychus urticae bean leaf disc spray test. The settings on record: foliar, 192 h, 200 ppm spray on bean leaf discs, mite populations of mixed ages, egg, larval and adult mortality 8 days later.
Source text: as §1

Assay [6] relates to Thrips tabaci (Onion Thrips). The assay can be described thus: Thrips tabaci sunflower leaf disc spray test. The settings on record: foliar, 168 h, 200 ppm spray on sunflower leaf discs, population of mixed ages, mortality after 7 days.
Source text: as §1

The subject of assay [7] is Spodoptera littoralis, Heliothis virescens, Plutella xylostella, Diabrotica balteata, Thrips tabaci, Tetranychus urticae. The assay can be described thus: Pesticidal tests, same protocols (all six pests taken together). The settings on record: same protocols as b207 (200 ppm), under the test conditions.
Source text: as §1

As to `N#Cc1ccc(C2=NOC(c3cc(Cl)cc(Cl)c3)(C(F)(F)F)C2)cc1NC(=O)c1ccccc1` (stereo not drawn) [D2], the pest or weed control at 200 ppm in assay [1], in assay [2], in assay [3], in assay [4], in assay [5] and in assay [6] was at least 80% in each case.
As to `Cc1ccc(C(=O)Nc2cc(C3=NOC(c4cc(Cl)cc(Cl)c4)(C(F)(F)F)C3)ccc2F)cc1` (stereo not drawn) [C9], the pest or weed control at 200 ppm in assay [1], in assay [2], in assay [3], in assay [4] and in assay [5] was at least 80% throughout.
`N#Cc1ccc(C2=NOC(c3cc(Cl)cc(Cl)c3)(C(F)(F)F)C2)cc1NC(=O)c1ccc(F)cc1` (stereo not drawn) [D18]: the pest or weed control at 200 ppm in assay [1], in assay [2], in assay [3], in assay [4], in assay [5] and in assay [6] was at least 80% throughout.
Turning to `N#Cc1ccc(C(=O)Nc2cccc(C3=NOC(c4cc(Cl)cc(Cl)c4)(C(F)(F)F)C3)c2)cc1` (stereo not drawn) [A4, 4-cyano-N-{3-[5-(3,5-dichloro-phenyl)-5-trifluoromethyl-4,5-dihydro-isoxazol-3-yl]phenyl}-benzamide], the pest or weed control at 200 ppm in assay [1], in assay [2], in assay [3], in assay [4] and in assay [5] was at least 80% throughout.
With `O=C(Nc1cc(C2=NOC(c3cc(Cl)cc(Cl)c3)(C(F)(F)F)C2)ccc1F)c1cc(Cl)ccc1F` (racemic) [C11], in assay [7], the “effect on mortality, feeding behavior, or growth regulation” value (shortened to “effect on mortality, feeding behavior”) is listed as “little or no effect”.
As to `COc1ccccc1C(=O)Nc1cccc(C2=NOC(c3cc(Cl)cc(Cl)c3)(C(F)(F)F)C2)c1F` (stereo not drawn) [B15], the pest or weed control at 200 ppm in assay [1], in assay [2], in assay [3], in assay [4] and in assay [6] was at least 80% throughout.
Turning to `COCC(=O)Nc1cccc(C2=NOC(c3cc(Cl)cc(Cl)c3)(C(F)(F)F)C2)c1` (stereo not drawn) [A7], the “effect on mortality, feeding behavior” value in assay [7] is “little or no effect”.
Regarding `O=C(CBr)Nc1cccc(C2=NOC(c3cc(Cl)cc(Cl)c3)(C(F)(F)F)C2)c1` (stereo not drawn) [A8], the “effect on mortality, feeding behavior” value in assay [7] is “little or no effect”.
As to `O=C(Nc1cccc(C2=NOC(c3cc(Cl)cc(Cl)c3)(C(F)(F)F)C2)c1F)c1ccccc1F` (stereo not drawn) [B1], the pest or weed control at 200 ppm in assay [1], in assay [2], in assay [3], in assay [4] and in assay [6] was at least 80% throughout.
In the case of `O=C(Nc1cccc(C2=NOC(c3cc(Cl)cc(Cl)c3)(C(F)(F)F)C2)c1F)c1ccco1` (stereo not drawn) [B10], the “effect on mortality, feeding behavior” value in assay [7] is listed as “little or no effect”.
With `O=C(Nc1cccc(C2=NOC(c3cc(Cl)cc(Cl)c3)(C(F)(F)F)C2)c1F)c1ccc([N+](=O)[O-])cc1` (stereo not drawn) [B5], the pest or weed control at 200 ppm in assay [1], in assay [2], in assay [3] and in assay [5] was at least 80% throughout.
`N#Cc1ccc(C2=NOC(c3cc(Cl)cc(Cl)c3)(C(F)(F)F)C2)cc1NC(=O)c1ccccc1F` (stereo not drawn) [D5]: the pest or weed control at 200 ppm in assay [1], in assay [2], in assay [3], in assay [4] and in assay [6] was at least 80% in each case.
Consider `N#Cc1ccc(C(=O)Nc2cccc(C3=NOC(c4cc(Cl)cc(Cl)c4)(C(F)(F)F)C3)c2F)cc1` (stereo not drawn) [B4], for which, in assay [7], the “effect on mortality, feeding behavior” value is reported as “little or no effect”.
Turning to `O=C(Nc1cccc(C2=NOC(c3cc(Cl)cc(Cl)c3)(C(F)(F)F)C2)c1F)c1ccc(F)cc1` (stereo not drawn) [B17], the “effect on mortality, feeding behavior” value in assay [7] was “little or no effect”.
Take `N#Cc1ccc(C2=NOC(c3cc(Cl)cc(Cl)c3)(C(F)(F)F)C2)cc1NC(=O)c1ccc(F)cc1F` (stereo not drawn) [D23]: the pest or weed control at 200 ppm in assay [1], in assay [2], in assay [3], in assay [4] and in assay [6] was at least 80% each time.
`O=C(Cc1ccc(Cl)cc1)Nc1cccc(C2=NOC(c3cc(Cl)cc(Cl)c3)(C(F)(F)F)C2)c1` (stereo not drawn) [A5]: the “effect on mortality, feeding behavior” value in assay [7] is on record as “little or no effect”.
Take `O=C(Nc1cccc(C2=NOC(c3cc(Cl)cc(Cl)c3)(C(F)(F)F)C2)c1)c1ccc(F)c(C(F)(F)F)c1` (racemic) [A18]: the “effect on mortality, feeding behavior” value in assay [7] is reported as “little or no effect”.
In the case of `O=C(Nc1cc(C2=NOC(c3cc(Cl)cc(Cl)c3)(C(F)(F)F)C2)ccc1F)c1cc(C(F)(F)F)ccc1F` (racemic) [C25], the “effect on mortality, feeding behavior” value in assay [7] is listed as “little or no effect”.
With `COc1ccccc1C(=O)Nc1cc(C2=NOC(c3cc(Cl)cc(Cl)c3)(C(F)(F)F)C2)ccc1F` (stereo not drawn) [C18], the “effect on mortality, feeding behavior” value in assay [7] is “little or no effect”.
The same measure, in the same setting: the entry for `O=C(Nc1cc(C2=NOC(c3cc(Cl)cc(Cl)c3)(C(F)(F)F)C2)ccc1F)c1ccc(F)cc1F` (stereo not drawn) [C24] is “little or no effect”.
